# Assay results as given in patent US20100021940A1, “Method for Determining the Activity of a Protease in a Sample” (ASTRAZENECA AB, priority 2006, published 2010).
# Several values for one entry are separate records, joined by “and”; a condition that tells them apart may be missing. Identical values can stand only once.
# Key:
# Assay type in all cases: biochemical, human
# MMP9 [1] = assay: Activity of purified MMP on substrate (reporter release)
# Description: In order to confirm the specificity of the substrates for various MMPs, standard enzymatic assays were adapted to monitor the release of reporter. The reporter was either analysed by a LC-MS method as described in Example 3a, or by a LC-UV method as described in Example 4. […] The enzyme can be used to monitor activity of substrates as follows: […]
# MMP14 = assay: as above; settings: 30 μM substrate; MMP Conc. 4.8 nM; AZL0078
# Description: In order to confirm the specificity of the substrates for various MMPs, standard enzymatic assays were adapted to monitor the release of reporter. The reporter was either analysed by a LC-MS method as described in Example 3a, or by a LC-UV method as described in Example 4.
# Recombinant human MMP14 catalytic domain may be expressed and purified as described by Parkar A. A. et al, (2000), Protein Expression and Purification, 20, 152. The purified enzyme can be used to monitor activity of substrates as follows: MMP14 (10 ng/ml final […]) in assay buffer (0.1M “Tris-HCl” (trade mark) buffer, pH 7.5 containing 0.1M NaCl, 20 mM CaCl2, 0.020 mM ZnCl and 0.05% (w/v) “Brij 35” (trade mark) detergent) in the presence or absence of inhibitors. Activity is determined by measuring the release of reporter 4-nitroaniline by the using the method in Example 3a.
# MMP9 [2] = assay: MMP9 activity in whole blood via 4-nitroaniline in plasma after zymosan stimulation (LC-MS); settings: for 4-nitroaniline concentration, Mean: group mean; for 4-nitroaniline concentration: individual subjects, substrate 10 μM in plasma, 37° C., 60 min
# Procedure: Samples of heparinised whole blood (1 mL) were stimulated with Zymosan (0, 50, 300, 600, 900 and 1200 μg/mL), vortexed or and incubated at 37° C. for 15 minutes. Plasma was collected after centrifugation, mixed with the substrate (10 μM) and incubated at 37° C. for 60 minutes. Methanol (300 μL), with (^13C)6-4-nitroaniline (1 μM) as internal standard, was added to a 100 μL aliquot of the above mixture and centrifuged to remove precipitated proteins. The supernatant (100 μL) was diluted with water (100 μL) and the extracts was injected directly onto a HPLC column.
# Thaw, as required, pooled control human plasma, quality control and test samples. Add methyl 1-acetyl-L-prolyl-L-leucylglycyl-α-R-(4-nitrophenylamino)-glycyl-L-leucyl-β-alaninate (2 μL, solution D) to test plasma sample (200 μL) in 2 mL screw cap microtubes and mix on a vortex mixer.
# Incubate tubes for 60 minutes at 37° C. in a shaking water bath. Prepare the calibration samples in plasma as detailed in Table 1 during the 60 minute incubation of test samples in step 3. Mix the samples on a vortex mixer.
# Manually dispense aliquots (100 μL) of each plasma sample into separate wells of a 96 deep-well 2 mL plate using an appropriate pipette. (Note: start pipetting calibration, quality control and blank samples approximately 10 minutes before the test samples have finished their incubation in step 3). Dispense internal standard in methanol (300 μL) into each well using the Tecan. Cover the plate with polystyrene cover. Centrifuge at 3000 rpm for 5 minutes at room temperature.
# Transfer an aliquot (100 μL) of the sample supernatant into separate wells of a 96 deep-well 2 mL plate using the Tecan. Mix water (100 μL) with each sample in the wells of a 96 deep-well polypropylene plate using the Tecan. Cover plate with pre-spilt 96 well seal.
# Analyse 10 μL aliquots by LC/MS.
# Whole blood samples were stimulated with varying concentrations of zymosan (0, 50, 300, 600, 900 and 1200 μg/mL). Plasma sample obtained from the stimulated whole blood samples were mixed with the substrate methyl 1-acetyl-L-prolyl-L-leucylglycyl-α-R-(4-nitrophenylamino)-glycyl-L-leucyl-β-alaninate at a plasma concentration of 10 μM and the samples were then incubated at 37° C. for 60 minutes. Aliquots (100 μL) of the human plasma were mixed with methanol (300 μL) containing [^13C]6-4-nitroaniline as an internal standard to precipitate the proteins and the sample was centrifuged and supernatants (100 μL) were mixed with water (100 μL). The extracts 10 μL were injected directly onto a Phenomenex Luna phenyl-hexyl column (50×2.0 mm, 5 μm) and the compounds eluted with a gradient mobile phase consisting of 0.01% ammonia/methanol. 4-nitroaniline was resolved from endogenous plasma constituents and the HPLC effluent was directed into the mass spectrometer via a heated nebuliser interface in negative mode. 4-nitroaniline and [^13C]6-4-nitroaniline were detected using single ion monitoring of the [M-H]^− ions at the mass to charge ratio of m/z 137 and 143 respectively. The method is described above.
# The method is validated over the range 0.0500 to 10.0 μM for 4-nitroaniline based on the analysis of a 100 μL plasma sample. Quality control samples at concentrations of 0.100, 2.00 and 8.00 μM 4-nitroaniline were included to determine the acceptability of each analysis batch. The limit of quantification (LOQ) of the method is 0.0500 μM 4-nitroaniline for a 100 μL aliquot of plasma.
# [3] = healthy volunteers, visit 3, zymosan 0 μg
# [4] = healthy volunteers, visit 3, zymosan 50 μg
# [5] = healthy volunteers, visit 3, zymosan 300 μg
# [6] = healthy volunteers, visit 3, zymosan 600 μg
# [7] = healthy volunteers, visit 3, zymosan 900 μg
# [8] = healthy volunteers, visit 3, zymosan 1200 μg
# [9] = healthy volunteers, visit 4, zymosan 0 μg
# [10] = healthy volunteers, visit 4, zymosan 50 μg
# [11] = healthy volunteers, visit 4, zymosan 300 μg
# [12] = healthy volunteers, visit 4, zymosan 600 μg
# [13] = healthy volunteers, visit 4, zymosan 900 μg
# [14] = healthy volunteers, visit 4, zymosan 1200 μg
compound,measurement,setting,value
"COC(=O)CCNC(=O)[C@H](CC(C)C)NC(=O)[C@@H](NC(=O)CNC(=O)[C@H](CC(C)C)NC(=O)[C@@H]1CCCN1C(C)=O)Nc1ccc([N+](=O)[O-])cc1 [Example 1.1, Methyl 1-acetyl-L-prolyl-L-leucylglycyl-α-R-(4-nitrophenylamino)-glycyl-L-leucyl-β-alaninate]",Activity,"MMP9 [1]; 30 μM substrate, MMP Conc. 0.27 nM, AZL0064",7.4 units/s
same,Activity of selected substrates with MMPs,"MMP9 [1]; Table 1b, MMP9",62.9 units/s (molRXH/molEnz * s)
same,Activity,MMP14,1.0 units/s
same,"4-nitroaniline concentration, Mean","MMP9 [2]; COPD patients, visit 3, zymosan 0 μg",0.128 µM
same,"4-nitroaniline concentration, Mean","MMP9 [2]; COPD patients, visit 3, zymosan 50 μg",1.58 µM
same,"4-nitroaniline concentration, Mean","MMP9 [2]; COPD patients, visit 3, zymosan 300 μg",3.56 µM
same,"4-nitroaniline concentration, Mean","MMP9 [2]; COPD patients, visit 3, zymosan 600 μg",4.33 µM
same,"4-nitroaniline concentration, Mean","MMP9 [2]; COPD patients, visit 3, zymosan 900 μg",4.77 µM
same,"4-nitroaniline concentration, Mean","MMP9 [2]; COPD patients, visit 3, zymosan 1200 μg",4.68 µM
same,"4-nitroaniline concentration, Mean","MMP9 [2]; COPD patients, visit 4, zymosan 0 μg",0.141 µM
same,"4-nitroaniline concentration, Mean","MMP9 [2]; COPD patients, visit 4, zymosan 50 μg",1.51 µM
same,"4-nitroaniline concentration, Mean","MMP9 [2]; COPD patients, visit 4, zymosan 300 μg",3.31 µM
same,"4-nitroaniline concentration, Mean","MMP9 [2]; COPD patients, visit 4, zymosan 600 μg",4.03 µM
same,"4-nitroaniline concentration, Mean","MMP9 [2]; COPD patients, visit 4, zymosan 900 μg",4.41 µM
same,"4-nitroaniline concentration, Mean","MMP9 [2]; COPD patients, visit 4, zymosan 1200 μg",4.54 µM
same,"4-nitroaniline concentration, Mean",MMP9 [2]; [3],0.121 µM
same,4-nitroaniline concentration,MMP9 [2]; [3],0.145 μM (2×) and 0.132 μM and 0.126 μM and 0.0917 μM and 0.124 μM and 0.104 μM and 0.0963 μM and 0.118 μM and 0.123 μM
same,"4-nitroaniline concentration, Mean",MMP9 [2]; [4],1.22 µM
same,4-nitroaniline concentration,MMP9 [2]; [4],1.13 μM (2×) and 1.82 μM and 2.10 μM and 1.52 μM and 0.988 μM and 0.836 μM and 0.878 μM and 0.646 μM and 1.16 μM
same,"4-nitroaniline concentration, Mean",MMP9 [2]; [5],2.82 µM
same,4-nitroaniline concentration,MMP9 [2]; [5],2.48 µM and 3.68 µM and 2.65 µM and 4.32 µM and 3.63 µM and 2.82 µM and 2.31 µM and 2.42 µM and 1.56 µM and 2.28 µM
same,"4-nitroaniline concentration, Mean",MMP9 [2]; [6],3.36 µM
same,4-nitroaniline concentration,MMP9 [2]; [6],3.00 µM and 4.26 µM and 2.98 µM and 4.39 µM and 4.23 µM and 3.90 µM and 3.08 µM and 2.99 µM and 1.84 µM and 2.95 µM
same,"4-nitroaniline concentration, Mean",MMP9 [2]; [7],3.52 µM
same,4-nitroaniline concentration,MMP9 [2]; [7],3.05 µM and 4.50 µM and 3.14 µM and 4.38 µM and 4.24 µM and 3.98 µM and 3.45 µM and 3.35 µM and 2.07 µM and 2.99 µM
same,"4-nitroaniline concentration, Mean",MMP9 [2]; [8],3.59 µM
same,4-nitroaniline concentration,MMP9 [2]; [8],3.07 µM and 4.53 µM and 2.99 µM and 4.28 µM and 4.45 µM and 4.41 µM and 3.53 µM and 3.50 µM and 2.14 µM and 3.02 µM
same,"4-nitroaniline concentration, Mean",MMP9 [2]; [9],0.131 µM
same,4-nitroaniline concentration,MMP9 [2]; [9],0.154 µM and 0.192 µM and 0.106 µM and 0.0977 µM and 0.130 µM and 0.199 µM and 0.0803 µM
same,"4-nitroaniline concentration, Mean",MMP9 [2]; [10],0.986 µM
same,4-nitroaniline concentration,MMP9 [2]; [10],1.49 µM and 2.11 µM and 0.808 µM and 0.616 µM and 0.732 µM and 0.795 µM and 0.758 µM
same,"4-nitroaniline concentration, Mean",MMP9 [2]; [11],2.39 µM
same,4-nitroaniline concentration,MMP9 [2]; [11],2.81 µM and 4.29 µM and 1.92 µM and 1.68 µM and 1.98 µM and 2.29 µM and 2.22 µM
same,"4-nitroaniline concentration, Mean",MMP9 [2]; [12],2.84 µM
same,4-nitroaniline concentration,MMP9 [2]; [12],3.17 µM and 4.36 µM and 2.39 µM and 2.12 µM and 2.41 µM and 3.36 µM
same,"4-nitroaniline concentration, Mean",MMP9 [2]; [13],3.26 µM
same,4-nitroaniline concentration,MMP9 [2]; [13],3.27 μM and 5.53 μM and 2.69 μM and 2.46 μM and 3.03 μM and 3.48 μM (2×)
same,"4-nitroaniline concentration, Mean",MMP9 [2]; [14],3.39 µM
same,4-nitroaniline concentration,MMP9 [2]; [14],3.32 µM and 5.28 µM and 2.84 µM and 2.85 µM and 3.15 µM and 4.00 µM
same,"4-nitroaniline concentration, Mean","MMP9 [2]; smokers, visit 3, zymosan 0 μg",0.149 µM
same,"4-nitroaniline concentration, Mean","MMP9 [2]; smokers, visit 3, zymosan 50 μg",1.45 µM
same,"4-nitroaniline concentration, Mean","MMP9 [2]; smokers, visit 3, zymosan 300 μg",3.35 µM
same,"4-nitroaniline concentration, Mean","MMP9 [2]; smokers, visit 3, zymosan 600 μg",4.10 µM
same,"4-nitroaniline concentration, Mean","MMP9 [2]; smokers, visit 3, zymosan 900 μg",4.45 µM
same,"4-nitroaniline concentration, Mean","MMP9 [2]; smokers, visit 3, zymosan 1200 μg",4.47 µM
same,"4-nitroaniline concentration, Mean","MMP9 [2]; smokers, visit 4, zymosan 0 μg",0.142 µM
same,"4-nitroaniline concentration, Mean","MMP9 [2]; smokers, visit 4, zymosan 50 μg",1.66 µM
same,"4-nitroaniline concentration, Mean","MMP9 [2]; smokers, visit 4, zymosan 300 μg",3.32 µM
same,"4-nitroaniline concentration, Mean","MMP9 [2]; smokers, visit 4, zymosan 600 μg",3.76 µM
same,"4-nitroaniline concentration, Mean","MMP9 [2]; smokers, visit 4, zymosan 900 μg",4.19 µM
same,"4-nitroaniline concentration, Mean","MMP9 [2]; smokers, visit 4, zymosan 1200 μg",4.41 µM
